Assay results reported in patent publication US9464111B2, “Short peptides and a method of use as an antioxidant” (L'OREAL, priority 2014, dated 2016).
Where no end group is shown, it is not given here.

Key:
Format in all cases: biochemical
[1] = ORAC oxygen radical absorbance capacity (USTM 192), in tubo; parameters: ORAC: unit not given here; details: for ORAC/peroxyl: Table II; for ORAC: Tables III-IX, unit not given
Experimental: (§1) In the course of the study, polypeptides were prepared by conventional synthesis methods and screened in tubo for antioxidant activity for peroxyl radicals (ROO.), superoxide radicals (O2.^−) and hydroxyl radicals (.OH).
(§2) In the screening standard testing for oxygen radical absorbance capacity (ORAC), hydroxyl radical absorbance capacity (HORAC), superoxide radical absorbance capacity (SORAC) and superoxide dismutase activity (SOD) were conducted with the test polypeptides. Testing was conducted according to USTM 190 (HORAC), USTM 191 (SORAC), USTM 192 (ORAC) and USTM 193 (SOAC) (SOD).
(§3) The peptides were tested in tubo for their antioxidant properties and tested against reference/known antioxidants. The evaluation of the antioxidant properties were conducted by determination of the ORAC (USTM 192), HORAC (USTM 190) and SOD (USTM 193) test methods.

[2] = HORAC hydroxyl radical absorbance capacity (USTM 190), in tubo; parameters: HORAC: unit not given here; details: for HORAC/hydroxyl: Table II; for HORAC: Tables III-IX, unit not given
Experimental: as §1, §2, §3

[3] = SOD superoxide dismutase activity (USTM 193), in tubo; details: Table II; for SOD/superoxide, Active25: cells marked (Active25)
Experimental: as §2, §3

[4] = SORAC superoxide radical absorbance capacity (USTM 191), in tubo; details: Tables III-VIII; for SORAC: result in words; for SORAC (IC25): cells marked (IC25)
Experimental: Tables I to IX shown below are a compilation of polypeptides studied by the inventors to ascertain those elements of the molecular structure that contribute to or negate antioxidant activity. In the course of the study, polypeptides were prepared by conventional synthesis methods and screened in tubo for antioxidant activity for peroxyl radicals (ROO.), superoxide radicals (O2.^−) and hydroxyl radicals (.OH).
In the screening standard testing for oxygen radical absorbance capacity (ORAC), hydroxyl radical absorbance capacity (HORAC), superoxide radical absorbance capacity (SORAC) and superoxide dismutase activity (SOD) were conducted with the test polypeptides. Testing was conducted according to USTM 190 (HORAC), USTM 191 (SORAC), USTM 192 (ORAC) and USTM 193 (SOAC) (SOD). Upon review of the results as indicated in the Tables, the inventors have discovered certain elements of the polypeptide structure as recited in claim 1 that are key contributors to determination of antioxidant activity.

Row | Compound | ORAC [1] | HORAC [2] | SORAC [4] | other results
1 | NCCC(=O)N[C@@H](Cc1c[nH]cn1)C(=O)O [Carnosine, β-alanyl-histidine, reference compound] | – | – | – | ORAC/peroxyl [1]: 354 μmol GAE/g; HORAC/hydroxyl [2]: 2099 μmol GAE/g; SOD/superoxide, Active50 [3]: 0 U/mg
2 | O=C1O[C@H]([C@@H](O)CO)C(O)=C1O [Vitamin C, reference compound] | – | – | – | ORAC/peroxyl [1]: 4456 μmol GAE/g; HORAC/hydroxyl [2]: 0 μmol GAE/g; SOD/superoxide, Active50 [3]: 752 U/mg
3 | Ac-DESLESTRRM-NH2 [AC-SNP4] | No capacity | No capacity | – | –
4 | Ac-EELMSDIKK-NH2 [AC-SYN2] | No capacity | No capacity | – | –
5 | Ac-EEMLERQRR-NH2 [AC-SNP3] | No capacity | No capacity | – | –
6 | Ac-EEMQRRKKK-NH2 [AC-SNP5] | No capacity | No capacity | – | –
7 | Ac-EEVKRK-NH2 [AC-SYN1] | No capacity | No capacity | – | –
8 | Ac-KKKEEMQRR-NH2 [AC-SNP7] | No capacity | No capacity | – | –
9 | Ac-RRMLQLVEE-NH2 [AC-SNP1] | No capacity | No capacity | – | –
10 | Ac-Valérate-EEMQRRKKK-NH2 ({Ac-Valérate}-EEMQRRKKK-NH2; not fully specified; printed as Ac-Valérate-EEMQRRKKK-NH2) [AC-SNP6] | No capacity | No capacity | – | –
11 | Ac-wRyR-NH2 [RED27] | 5342 | – | No capacity | –
12 | CWRYR-NH2 [RED11] | 2007 | 625 | No capacity | –
13 | HRHM [CP2.5] | 952 | 10192 | – | –
14 | HWPY [S1] | 5955 | – | – | SORAC (IC25) [4]: 13(IC25)
15 | HWRF [IMM1] | 2422 | – | – | SORAC (IC25) [4]: 5(IC25)
16 | HYHY [AO1, short chain polypeptide of the invention] | 4748 | 33489 | – | ORAC/peroxyl [1]: 4748 μmol GAE/g; HORAC/hydroxyl [2]: 33489 μmol GAE/g; SOD/superoxide, Active25 [3]: 6 (Active25) U/mg; SORAC (IC25) [4]: 6(IC25)
17 | KRKYWW-NH2 [RED2] | 1837 | 1063 | No capacity | –
18 | RRH [CP2.6] | – | 41073 | – | –
19 | RRHM [CP2] | 1204 | 321448 | – | ORAC/peroxyl [1]: 1204 μmol GAE/g; HORAC/hydroxyl [2]: 321448 μmol GAE/g; SORAC (IC25) [4]: 6(IC25)
20 | RYHM [AO2.1] | 5390 | 131574 | – | ORAC/peroxyl [1]: 5390 μmol GAE/g; HORAC/hydroxyl [2]: 132591 μmol GAE/g

Row | Compound | ORAC [1] | HORAC [2] | SORAC [4] | other results
21 | RYHW [AO2, short chain polypeptide of the invention] | 9328 | 41882 | – | ORAC/peroxyl [1]: 9328 μmol GAE/g; HORAC/hydroxyl [2]: 41882 μmol GAE/g; SOD/superoxide, Active25 [3]: 4 (Active25) U/mg; SORAC (IC25) [4]: 4(IC25)
22 | RwRyR-NH2 [RED26] | 4461 | – | No capacity | –
23 | RyR-NH2 [RED32] | 3385 | – | No capacity | –
24 | WKYK-NH2 [RED25] | 4168 | 2476 | No capacity | –
25 | WRYR (not fully specified (C-terminus)) [RED23] | 4091 | 2089 | No capacity | –
26 | WRYR-NH2 [RED6] | 4488 | 1548 | No capacity | –
27 | WRYr-NH2 [RED19] | 4350 | 1457 | No capacity | –
28 | WRyR-NH2 [RED21] | 4816 | 2472 | – | SORAC (IC25) [4]: 7(IC25)
29 | WrYR-NH2 [RED20] | 4448 | 1666 | No capacity | –
30 | WrYr-NH2 [RED18] | 4758 | 2982 | No capacity | –
31 | YHFR [IMM2] | – | 3036 | – | SORAC (IC25) [4]: 5(IC25)
32 | YWPW [S2] | 5917 | – | No capacity | –
33 | YkYkYk [RED34] | 355 | 1053 | – | –
34 | fkwR-NH2 [RED9] | 2202 | 752 | No capacity | –
35 | kfRw-NH2 [RED7] | 2120 | 1124 | No capacity | –
36 | wRYR-NH2 [RED24] | 4077 | 2225 | No capacity | –
37 | wRwR-NH2 [RED31] | 4652 | – | No capacity | –
38 | wRyR-NH2 [RED22] | 5383 | 1686 | No capacity | –
39 | wRyRw-NH2 [RED29] | 5512 | – | No capacity | –
40 | wRyRy-NH2 [RED28] | 5216 | – | – | SORAC (IC25) [4]: 3(IC25)
